{
  "source": "paper PMC12691695",
  "about": "“Functional insight into cyclin-dependent kinase (CDK)7 via chemical inhibition of the priority fungal pathogen Cryptococcus neoformans” (mBio, 2025)",
  "biological_target": "T1, CnCDK7; pulled-down CAK complex (CnCAK: CDK7-CycH-Mat1) (Cryptococcus neoformans, UniProt J9W126)",
  "T1 construct": "gene CNAG_06445; native trimeric CAK complex pulled down on mNeonGreen-Trap beads from C. neoformans; CDK7 tagged with mNeonGreen, CycH with V5, Mat1 with 6xHis; with Cyclin H",
  "T1 sequence (J9W126 1-358)": "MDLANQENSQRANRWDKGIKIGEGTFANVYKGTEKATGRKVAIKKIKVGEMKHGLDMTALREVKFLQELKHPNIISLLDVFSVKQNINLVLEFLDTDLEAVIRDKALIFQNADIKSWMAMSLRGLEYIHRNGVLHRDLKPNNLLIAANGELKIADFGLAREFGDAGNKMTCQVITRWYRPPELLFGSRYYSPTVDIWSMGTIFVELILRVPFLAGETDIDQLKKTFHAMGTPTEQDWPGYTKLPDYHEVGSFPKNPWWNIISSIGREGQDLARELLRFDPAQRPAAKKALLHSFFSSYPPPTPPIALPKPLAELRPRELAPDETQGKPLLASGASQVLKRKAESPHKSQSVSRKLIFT",
  "T1 sequence (J9VUP1 1-447 partner)": "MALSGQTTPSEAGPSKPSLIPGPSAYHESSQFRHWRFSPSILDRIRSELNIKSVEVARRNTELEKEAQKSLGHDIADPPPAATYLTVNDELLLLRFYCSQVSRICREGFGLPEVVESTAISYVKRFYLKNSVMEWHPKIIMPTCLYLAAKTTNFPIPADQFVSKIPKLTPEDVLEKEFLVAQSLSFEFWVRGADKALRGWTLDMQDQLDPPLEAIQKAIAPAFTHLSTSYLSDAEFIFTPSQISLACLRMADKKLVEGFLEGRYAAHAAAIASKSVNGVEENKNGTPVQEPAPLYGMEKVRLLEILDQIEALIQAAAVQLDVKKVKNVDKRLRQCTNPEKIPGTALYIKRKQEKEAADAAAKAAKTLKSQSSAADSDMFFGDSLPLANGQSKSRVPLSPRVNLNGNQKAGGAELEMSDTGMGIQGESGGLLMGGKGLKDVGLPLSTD",
  "T1 sequence (J9VS06 1-372 partner)": "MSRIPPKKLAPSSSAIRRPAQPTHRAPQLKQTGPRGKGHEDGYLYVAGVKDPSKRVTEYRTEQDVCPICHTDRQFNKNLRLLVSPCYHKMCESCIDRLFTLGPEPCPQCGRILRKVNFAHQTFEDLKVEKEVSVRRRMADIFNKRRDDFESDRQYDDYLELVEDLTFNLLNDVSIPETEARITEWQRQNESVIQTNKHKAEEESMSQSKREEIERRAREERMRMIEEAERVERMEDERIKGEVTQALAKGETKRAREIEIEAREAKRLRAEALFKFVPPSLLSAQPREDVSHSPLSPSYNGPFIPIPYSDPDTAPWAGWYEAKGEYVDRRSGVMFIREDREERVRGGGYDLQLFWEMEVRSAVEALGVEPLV",
  "assay": "Kinase-Glo ATP consumption, pulled-down CAK, […] min",
  "type": "biochemical",
  "details": "co-substrate 250 µM CDK7/9tide; 20 mM MgCl2, pH 7.5, room temperature; bead-bound complex",
  "data": [
    {"smiles": "Nc1ncnc2c1ncn2[C@@H]1O[C@H](COP(=O)(O)OP(=O)(O)OP(=O)(O)O)[C@@H](O)[C@H]1O", "note": "[ATP]", "values": [
      {"measurement": "Kinase-Glo ATP consumption, pulled-down CAK, 300 min", "value": "ATP consumption (due to the phosphorylation of the peptide substrate by CDK7)"}
    ]}
  ]
}
